Measurements: ChEMBL document CHEMBL1201862, “PubChem BioAssay data set” (2004)
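Growth conditions: 96-well plates. Treatment: test compound, 48 hours, 5 concentrations. Analysis: linear interpolation between bracketing concentrations; unreached endpoints set to highest concentration. Abbreviation: GI50, concentration required for 50% inhibition of growth.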 Activity calls are given as the source filed them. Cut-off read from the data, not from the text of the source: active = GI50 up to about 1.1 µM and inactive = higher.

Tests used:
Experiment in all cases: NCI tumour cell line growth inhibition, 48 h
U-251 = tested on: U-251
HCT-15 = tested on: HCT-15
SF-295 = tested on: SF-295
A549 = tested on: A549
SF-268 = tested on: SF-268
SR = tested on: SR
LOX IMVI = tested on: LOX IMVI
MCF7 = tested on: MCF7
HOP-92 = tested on: HOP-92
OVCAR-3 = tested on: OVCAR-3
MDA-N = tested on: MDA-N
IGROV-1 = tested on: IGROV-1
Hs-578T = tested on: Hs-578T
HT-29 = tested on: HT-29
NCI-H23 = tested on: NCI-H23
K562 = tested on: K562
UACC-257 = tested on: UACC-257
SK-MEL-2 = tested on: SK-MEL-2
SK-MEL-28 = tested on: SK-MEL-28
BT-549 = tested on: BT-549
A498 = tested on: A498
SW-620 = tested on: SW-620
Malme-3M = tested on: Malme-3M
HOP-62 = tested on: HOP-62
SF-539 = tested on: SF-539
UO-31 = tested on: UO-31
OVCAR-4 = tested on: OVCAR-4
HCT-116 = tested on: HCT-116
T47D = tested on: T47D
SNB-19 = tested on: SNB-19
HCC 2998 = tested on: HCC 2998
EKVX = tested on: EKVX
PC-3 = tested on: PC-3
NCI-H460 = tested on: NCI-H460
NCI-H226 = tested on: NCI-H226
OVCAR-8 = tested on: OVCAR-8
DU-145 = tested on: DU-145
NCI-H522 = tested on: NCI-H522
TK-10 = tested on: TK-10
M14 = tested on: M14
ACHN = tested on: ACHN
SN12C = tested on: SN12C
KM12 = tested on: KM12
SK-MEL-5 = tested on: SK-MEL-5
786-0 = tested on: 786-0
CCRF-CEM = tested on: CCRF-CEM
HL-60 = tested on: HL-60
MOLT-4 = tested on: MOLT-4
OVCAR-5 = tested on: OVCAR-5
RPMI-8226 = tested on: RPMI-8226
RXF 393 = tested on: RXF 393
MDA-MB-231 = tested on: MDA-MB-231
UACC-62 = tested on: UACC-62
CAKI-1 = tested on: CAKI-1
SK-OV-3 = tested on: SK-OV-3
MDA-MB-435 = tested on: MDA-MB-435
NCI/ADR-RES = tested on: NCI/ADR-RES
COLO 205 = tested on: COLO 205

COc1ccc(-c2c3c([nH]c(=S)c2C#N)CC(C)(C)CC3=O)cc1
GI50 (U-251): > 100 µM (inactive) | GI50 (HCT-15): > 100 µM | GI50 (SF-295): > 100 µM (inactive) | GI50 (A549): > 100 µM (inactive) | GI50 (SF-268): > 100 µM (inactive) | GI50 (SR): > 100 µM (inactive) | GI50 (LOX IMVI): > 100 µM (inactive) | GI50 (MCF7): > 100 µM (inactive) | GI50 (HOP-92): > 100 µM (inactive) | GI50 (OVCAR-3): > 100 µM (inactive) | GI50 (MDA-N): > 100 µM (inactive) | GI50 (IGROV-1): > 100 µM (inactive) | GI50 (Hs-578T): > 100 µM (inactive) | GI50 (HT-29): > 100 µM (inactive) | GI50 (NCI-H23): > 100 µM (inactive) | GI50 (K562): 61.7 µM (inactive) | GI50 (UACC-257): > 100 µM (inactive) | GI50 (SK-MEL-2): > 100 µM (inactive) | GI50 (SK-MEL-28): > 100 µM (inactive) | GI50 (BT-549): > 100 µM (inactive) | GI50 (A498): 55.6 µM (inactive) | GI50 (SW-620): > 100 µM (inactive) | GI50 (Malme-3M): > 100 µM (inactive) | GI50 (HOP-62): > 100 µM (inactive) | GI50 (SF-539): > 100 µM (inactive) | GI50 (UO-31): > 100 µM (inactive) | GI50 (OVCAR-4): > 100 µM (inactive) | GI50 (HCT-116): > 100 µM (inactive) | GI50 (T47D): 59.6 µM (inactive) | GI50 (SNB-19): > 100 µM (inactive) | GI50 (HCC 2998): > 100 µM (inactive) | GI50 (EKVX): > 100 µM (inactive) | GI50 (PC-3): > 100 µM (inactive) | GI50 (NCI-H460): > 100 µM (inactive) | GI50 (NCI-H226): > 100 µM (inactive) | GI50 (OVCAR-8): > 100 µM (inactive) | GI50 (DU-145): > 100 µM (inactive) | GI50 (NCI-H522): 36.4 µM (inactive) | GI50 (TK-10): > 100 µM (inactive) | GI50 (M14): > 100 µM (inactive) | GI50 (ACHN): > 100 µM (inactive) | GI50 (SN12C): > 100 µM (inactive) | GI50 (KM12): > 100 µM (inactive) | GI50 (SK-MEL-5): > 100 µM (inactive) | GI50 (786-0): > 100 µM (inactive) | GI50 (CCRF-CEM): 56.2 µM (inactive) | GI50 (HL-60): > 100 µM (inactive) | GI50 (MOLT-4): > 100 µM (inactive) | GI50 (OVCAR-5): > 100 µM (inactive) | GI50 (RPMI-8226): > 100 µM (inactive) | GI50 (RXF 393): > 100 µM (inactive) | GI50 (MDA-MB-231): > 100 µM (inactive) | GI50 (UACC-62): > 100 µM (inactive) | GI50 (CAKI-1): > 100 µM (inactive)

COc1cc(N(CCC#N)CCC#N)ccc1C(/N=N/c1ccccc1C)=N\NC(=O)c1ccc(C)cc1
GI50 (U-251): 42.3 µM (inactive) | GI50 (HCT-15): > 100 µM | GI50 (SF-295): > 100 µM (inactive) | GI50 (A549): 59.6 µM (inactive) | GI50 (SF-268): 64.4 µM (inactive) | GI50 (LOX IMVI): 40.8 µM (inactive) | GI50 (SK-OV-3): > 100 µM (inactive) | GI50 (HOP-92): 53.8 µM (inactive) | GI50 (OVCAR-3): 24.2 µM (inactive) | GI50 (MDA-N): 23.8 µM (inactive) | GI50 (IGROV-1): 75 µM (inactive) | GI50 (MDA-MB-435): 29.3 µM (inactive) | GI50 (Hs-578T): > 100 µM (inactive) | GI50 (HT-29): 85.3 µM (inactive) | GI50 (NCI-H23): 91.8 µM (inactive) | GI50 (K562): 29.8 µM (inactive) | GI50 (UACC-257): 61.2 µM (inactive) | GI50 (SK-MEL-2): 43.9 µM (inactive) | GI50 (SK-MEL-28): > 100 µM (inactive) | GI50 (BT-549): 98.2 µM (inactive) | GI50 (SW-620): 72.9 µM (inactive) | GI50 (Malme-3M): 34.7 µM (inactive) | GI50 (HOP-62): > 100 µM (inactive) | GI50 (UO-31): 76.2 µM (inactive) | GI50 (OVCAR-4): 59.8 µM (inactive) | GI50 (HCT-116): 36.1 µM (inactive) | GI50 (T47D): 38.2 µM (inactive) | GI50 (SNB-19): 63 µM (inactive) | GI50 (HCC 2998): 85.3 µM (inactive) | GI50 (EKVX): 28.4 µM (inactive) | GI50 (PC-3): 59.3 µM (inactive) | GI50 (NCI-H460): 73.5 µM (inactive) | GI50 (NCI-H226): > 100 µM (inactive) | GI50 (OVCAR-8): 71 µM (inactive) | GI50 (DU-145): > 100 µM (inactive) | GI50 (NCI-H522): 25.2 µM (inactive) | GI50 (TK-10): > 100 µM (inactive) | GI50 (M14): > 100 µM (inactive) | GI50 (SN12C): 44.1 µM (inactive) | GI50 (KM12): 49.1 µM (inactive) | GI50 (NCI/ADR-RES): > 100 µM (inactive) | GI50 (SK-MEL-5): > 100 µM (inactive) | GI50 (786-0): 36.6 µM (inactive) | GI50 (CCRF-CEM): 15.2 µM (inactive) | GI50 (HL-60): 2.15 µM (inactive) | GI50 (MOLT-4): 28 µM (inactive) | GI50 (OVCAR-5): > 100 µM (inactive) | GI50 (COLO 205): 33.7 µM (inactive) | GI50 (RXF 393): > 100 µM (inactive) | GI50 (MDA-MB-231): 25.5 µM (inactive) | GI50 (UACC-62): 43.4 µM (inactive) | GI50 (CAKI-1): > 100 µM (inactive)
